# Laboratory results from patent US11390609B2, “Rho-associated protein kinase inhibitor, pharmaceutical composition comprising same, and preparation method and use thereof” (BEIJING TIDE PHARMACEUTICAL CO., LTD., priority 2017, dated 2022).
# Tests used:
# ROCK2 = ROCK2 (Homo sapiens, UniProt O75116); assay: ROCK2 kinase IC50 assay (CISBIO HTRF KinEASE-STK S2 kit); format: biochemical; conditions: incubated at room temperature for 2 hours
# In short: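 HTRF KinEASE-STK S2 format with recombinant ROCK2 (1.4 ng per well), STK-S2 substrate and ATP from 5× working solutions of 1.5 μM each, run 2 h at room temperature. Nine-point dilutions from 10000 nM top concentration; 665/615 nm emission ratio normalised to no-compound and no-kinase controls, curve-fitted for IC50.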
# ROCK1 = ROCK1 (Homo sapiens (Human), UniProt Q13464); assay: ROCK1 kinase IC50 assay (biological test method similar to the ROCK2 assay); format: biochemical
# Chain of ROCK1 (Q13464 whole entry, species assumed): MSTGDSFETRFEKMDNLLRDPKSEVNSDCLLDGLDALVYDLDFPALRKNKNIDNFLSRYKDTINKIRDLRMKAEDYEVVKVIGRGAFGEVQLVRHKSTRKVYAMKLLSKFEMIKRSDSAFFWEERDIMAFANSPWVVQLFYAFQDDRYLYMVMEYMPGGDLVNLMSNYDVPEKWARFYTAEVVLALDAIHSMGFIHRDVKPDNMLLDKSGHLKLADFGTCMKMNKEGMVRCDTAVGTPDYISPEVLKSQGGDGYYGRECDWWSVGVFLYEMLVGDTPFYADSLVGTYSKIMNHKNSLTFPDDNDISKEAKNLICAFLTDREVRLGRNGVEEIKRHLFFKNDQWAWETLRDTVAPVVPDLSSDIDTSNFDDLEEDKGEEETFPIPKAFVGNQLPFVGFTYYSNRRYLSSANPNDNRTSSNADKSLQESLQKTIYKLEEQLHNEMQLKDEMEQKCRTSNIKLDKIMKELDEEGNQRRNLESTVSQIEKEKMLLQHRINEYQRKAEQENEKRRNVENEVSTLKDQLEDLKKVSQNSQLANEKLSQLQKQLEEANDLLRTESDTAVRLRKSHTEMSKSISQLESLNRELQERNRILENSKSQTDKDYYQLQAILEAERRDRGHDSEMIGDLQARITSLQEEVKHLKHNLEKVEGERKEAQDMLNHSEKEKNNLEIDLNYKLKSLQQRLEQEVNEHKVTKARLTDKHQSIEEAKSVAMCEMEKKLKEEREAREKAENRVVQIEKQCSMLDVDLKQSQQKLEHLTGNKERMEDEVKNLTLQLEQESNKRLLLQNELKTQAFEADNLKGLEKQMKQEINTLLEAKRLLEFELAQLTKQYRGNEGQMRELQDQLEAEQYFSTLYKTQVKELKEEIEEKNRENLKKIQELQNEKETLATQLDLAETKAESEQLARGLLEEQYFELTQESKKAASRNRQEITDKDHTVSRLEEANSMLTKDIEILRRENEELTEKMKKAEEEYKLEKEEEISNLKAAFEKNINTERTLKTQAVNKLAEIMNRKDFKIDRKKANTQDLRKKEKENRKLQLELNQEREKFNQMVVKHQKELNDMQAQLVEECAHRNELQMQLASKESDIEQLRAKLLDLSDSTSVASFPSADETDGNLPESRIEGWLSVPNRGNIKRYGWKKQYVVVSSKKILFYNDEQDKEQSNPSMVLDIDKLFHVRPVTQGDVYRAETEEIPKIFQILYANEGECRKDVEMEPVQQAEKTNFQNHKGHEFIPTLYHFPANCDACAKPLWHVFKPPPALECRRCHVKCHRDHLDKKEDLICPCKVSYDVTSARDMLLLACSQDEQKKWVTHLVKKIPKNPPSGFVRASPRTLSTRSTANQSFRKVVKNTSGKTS
# In short: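 Compound dilution series (9 concentrations, top solution 10000 nM, DMSO-containing buffer) incubated 2 h at room temperature with kinase, STK-S2 substrate and ATP (5× working solutions of 1.5 µM each). Phosphorylation detected by HTRF (665/615 nm emission ratio) after 1 h; inhibition relative to full-reaction and kinase-free wells, fitted for IC50.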
SMILES,IC50 (ROCK2),IC50 (ROCK1)
"Cn1c(C(=O)N2C[C@@H](O)[C@H](F)C2)cc2ccc(-c3nccc(Nc4ccc(-c5cn[nH]c5)cc4)n3)cc21 [TDI01518, (6-(4-((4-(lH-pyrazol-4-yl)phenyl)amino)pyrimidin-2-yl)-1-methyl-1H-indol-2-yl)((3R,4R)-3-fluoro-4-hydroxypyrrolidin-1-yl)methanone]",0.078 µM,3.03 µM
"Cn1c(C(=O)N2C[C@@H](F)[C@H](Br)C2)cc2ccc(-c3nccc(Nc4ccc(-c5cn[nH]c5)cc4)n3)cc21 [TDI01519, (6-(4-((4-(1H-py razol-4-yl)phenyl)amino)pyrimidin-2-yl)-1-methyl-1H-indol-2-yl)((3R,4R)-3-bromo-4-fluoropyrrolidin-1-yl)methanone]",0.102 µM,5.24 µM
"Cn1c(C(=O)N2C[C@@H](O)[C@@H](F)C2)cc2ccc(-c3nccc(Nc4ccc(-c5cn[nH]c5)cc4)n3)cc21 [TDI01520, (6-(4-((4-(1H-pyrazol-4-yl)phenyl)amino)pyrimidin-2-yl)-1-methyl-1H-indol-2-yl)((3S,4R)-3-fluoro-4-hydroxypyrrolidin-1-yl)methanone]",0.015 µM,> 10 µM
"Cn1c(C(=O)N2CC(O)(C(F)(F)F)C2)cc2ccc(-c3nccc(Nc4ccc(-c5cn[nH]c5)cc4)n3)cc21 [TDI01523, (6-(4-((4-(1H-pyrazol-4-yl)phenyl)amino)pyrimidin-2-yl)-1-methyl-1H-indol-2-yl)(3-hydroxy-3-(trifluoromethyl)azetidin-1-yl)methanone]",0.086 µM,1.89 µM
"Cn1c(C(=O)N2CC(F)(CF)C2)cc2ccc(-c3nccc(Nc4ccc(-c5cn[nH]c5)cc4)n3)cc21 [TDI01524, (6-(4-((4-(1H-pyrazol-4-yl)phenyl)amino)pyrimidin-2-yl)-1-methyl-1H-indol-2-yl)(3-fluoro-3-(fluoromethyl)azetidin-1-yl)methanone]",0.03 µM,1.42 µM
"O=C(c1cc2ccc(-c3nc(Nc4ccc(-c5cn[nH]c5)cc4)c4sccc4n3)cc2s1)N1CC(F)(F)C1 [TDI01525, (6-(4-((4-(1H-pyrazol-4-yl)phenyl)-amino)thieno-[3,2-d]-pyrimidin-2-yl)benzo[b]-thiophen-2-yl)(3,3-difluoro-azetidin-1-yl)methanone]",0.335 µM,> 10 µM
"Cn1c(C(=O)N2CC(F)(F)C2)cc2ccc(-c3ncnc(Nc4ccc(-c5cn[nH]c5)cc4)n3)cc21 [TDI01532, (6-(4-((4-(1H-pyrazol-4-yl)phenyl)amino)-1,3,5-triazin-2-yl)-1-methyl-1H-indol-2-yl)(3,3-difluoroazetidin-1-yl)methanone]",0.049 µM,> 10 µM
"O=C(C1CC(F)(F)C1)N1Cc2ccc(-c3ncnc(Nc4ccc(-c5cn[nH]c5)cc4)n3)cc2C1 [TDI01536, (5-(4-((4-(1H-pyrazol-4-yl)phenyl)amino)-1,3,5-triazin-2-yl)isoindolin-2-yl)(3,3-difluorocyclobutyl)methanone]",0.105 µM,> 10 µM
"Cn1c(C(=O)N2CC(C(F)(F)F)C2)cc2ccc(-c3nccc(Nc4ccc(-c5cn[nH]c5)cc4)n3)cc21 [TDI01538, (6-(4-((4-(1H-pyrazol-4-yl)phenyl)amino)pyrimidin-2-yl)-1-methyl-1H-indol-2-yl)(3-(trifluoromethyl)azetidin-1-yl)methanone]",0.198 µM,4.93 µM
"O=C(C1CC2(CCNCC2)C1)N1Cc2ccc(-c3nccc(Nc4ccc(-c5cn[nH]c5)cc4)n3)cc2C1 [TDI01546, (5-(4-((4-(1H-pyrazol-4-yl)phenyl)amino)pyrimidin-2-yl)isoindolin-2-yl)(7-azaspiro[3.5]nonan-2-yl)methanone]",0.026 µM,1.55 µM
"O=C(OC1CCNC1)N1Cc2ccc(-c3nccc(Nc4ccc(-c5cn[nH]c5)cc4)n3)cc2C1 (centres unmarked) [TDI01551, pyrrolidin-3-yl 5-(4-((4-(1H-pyrazol-4-yl)phenyl)amino)pyrimidin-2-yl)isoindoline-2-carboxylate]",0.031 µM,1.73 µM
"CN1CCC(OC(=O)N2Cc3ccc(-c4nccc(Nc5ccc(-c6cn[nH]c6)cc5)n4)cc3C2)C1 (centres unmarked) [TDI01552, 1-methylpyrrolidin-3-yl5-(4-((4-(1H-pyrazol-4-yl)phenyl)amino)pyrimidin-2-yl)isoindoline-2-carboxylate]",0.051 µM,2.95 µM
"O=C(N1CCN(C2COC2)CC1)N1Cc2ccc(-c3nccc(Nc4ccc(-c5cn[nH]c5)cc4)n3)cc2C1 [TDI01555, (5-(4-((4-(1H-pyrazol-4-yl)phenyl)amino)pyrimidin-2-yl)isoindolin-2-yl)(4-(oxetan-3-yl)piperazin-1-yl)methanone]",0.14 µM,> 10 µM
"CC(C)(C)OC(=O)N1Cc2ccc(-c3nccc(Nc4ccc(-c5cn[nH]c5)cc4)n3)cc2C1 [TDI01557B, tert-butyl 5-(4-((4-(1H-pyrazol-4-yl)phenyl)amino)pyrimidin-2-yl)isoindoline-2-carboxylate]",0.049 µM,> 10 µM
"O=C(OCc1ccccc1)N1Cc2ccc(-c3nccc(Nc4ccc(-c5cn[nH]c5)cc4)n3)cc2C1 [TDI01559, benzyl 5-(4-((4-(1H-pyrazol-4-yl)phenyl)amino)pyrimidin-2-yl)isoindolin-2-carboxylate]",0.17 µM,> 10 µM
"O=C(C1CCOCC1)N1Cc2ccc(-c3nccc(Nc4ccc(-c5cn[nH]c5)cc4)n3)cc2C1 [TDI01560, (5-(4-((4-(1H-pyrazol-4-yl)phenyl)amino)pyrimidin-2-yl)isoindolin-2-yl)(tetrahydro-2H-pyran-4-yl)methanone]",0.083 µM,> 10 µM
"O=C(C1CC(O)C1)N1Cc2ccc(-c3nccc(Nc4ccc(-c5cn[nH]c5)cc4)n3)cc2C1 (centres unmarked) [TDI01561, (5-(4-((4-(1H-pyrazol-4-yl)phenyl)amino)pyrimidin-2-yl)isoindolin-2-yl)(3-hydroxycyclobutyl) methanone]",0.205 µM,> 10 µM
"O=C(OC1CC(F)(F)C1)N1Cc2ccc(-c3nccc(Nc4ccc(-c5cn[nH]c5)cc4)n3)cc2C1 [TDI01562, 3,3-difluorocyclobutyl 5-(4-((4-(1H-pyrazol-4-yl)phenyl)amino)pyrimidin-2-yl)isoindoline-2-carboxylate]",0.023 µM,> 10 µM
"O=C(C1CC(F)(F)C1)N1Cc2ccc(-c3nc(Nc4ccc(-c5cn[nH]c5)cc4)c4cc[nH]c4n3)cc2C1 [TDI01565, (5-(4-((4-(1H-pyrazol-4-yl)phenyl)amino)-7H-pyrrolo[2,3-d]pyrimidin-2-yl)isoindolin-2-yl)(3,3-difluorocyclobutyl)methanone]",0.057 µM,> 10 µM
"NC(=O)c1cnc(-c2ccc3c(c2)CN(C(=O)C2CC(F)(F)C2)C3)nc1Nc1ccc(-c2cn[nH]c2)cc1 [TDI01567, 4-((4-(1H-pyrazol-4-yl)phenyl)amino)-2-(2-(3,3-difluorocyclobutane-1-carbonyl)isoindolin-5-yl)pyrimidin-5-carboxamide]",0.065 µM,> 10 µM
O=C(O)c1cnc(-c2ccc3c(c2)CN(C(=O)C2CC(F)(F)C2)C3)nc1Nc1ccc(-c2cn[nH]c2)cc1 [TDI01567C],0.029 µM,> 10 µM
"O=C(C1CC(F)(F)C1)N1CCc2ccc(-c3nccc(Nc4ccc5[nH]ncc5c4)n3)cc2C1 [TDI01575, (7-(4-((1H-indazol-5-yl)amino)pyrimidin-2-yl)-3,4-dihydroisoquinolin-2(1H)-yl)(3,3-difluorocyclobutyl) methanone]",0.169 µM,> 10 µM
"O=C(c1cc2ccc(-c3ncnc(Nc4ccc(-c5cn[nH]c5)cc4)n3)cc2[nH]1)N1CC(F)(F)C1 [TDI01581, (6-(4-((4-(1H-pyrazol-4-yl)phenyl)amino)-1,3,5-triazin-2-yl)-1H-indol-2-yl)(3,3-difluoroazetidin-1-yl)methanone]",0.028 µM,> 10 µM
"CC(=O)N1Cc2nc(-c3ccc4c(c3)CN(C(=O)C3CC(F)(F)C3)C4)nc(Nc3ccc(-c4cn[nH]c4)cc3)c2C1 [TDI01587, 1-(4-((4-(1H-pyrazol-4-yl)phenyl)amino)-2-(2-(3,3-difluorocyclobutane-1-carbonyl)isoindolin-5-yl)-5,7-dihydro-6H-pyrrolo[3,4-d]pyrimidin-6-yl)ethan-1-one]",0.025 µM,> 10 µM
"O=C(C1CC(F)(F)C1)N1Cc2ccc(-c3ncc(F)c(Nc4ccc5[nH]ncc5c4)n3)cc2C1 [TDI01589, (5-(4-((1H-indazol-5-yl)amino)-5-fluoropyrimidin-2-yl)isoindolin-2-yl)(3,3-difluorocyclobutyl)methnone]",0.039 µM,> 10 µM
"O=C1c2cc(-c3ncc(F)c(Nc4ccc(-c5cn[nH]c5)cc4)n3)ccc2CN1CC1CC(F)(F)C1 [TDI01590, 6-(4-((4-(1H-pyrazol-4-yl)phenyl)amino)-5-fluoropyrimidin-2-yl)-2-((3,3-difluorocyclobutyl)methyl)isoindolin-1-one]",0.266 µM,> 10 µM
"O=C(C1CC(F)(F)C1)N1CCc2cc(-c3ncc(F)c(Nc4ccc(-c5cn[nH]c5)cc4)n3)ccc2C1 [TDI01596, (6-(4-((4-(1H-pyrazol-4-yl)phenyl)amino)-5-fluoropyrimidin-2-yl)-3,4-dihydroisoquinolin-2(1H)-yl)(3,3-difluorocyclobutyl)methanone]",0.275 µM,> 10 µM
"O=C(CC1CCOC1)N1Cc2ccc(-c3nccc(Nc4ccc(-c5cn[nH]c5)cc4)n3)cc2C1 (centres unmarked) [TDI01597B, 1-(5-(4-((4-(1H-pyrazol-4-yl)phenyl)amino)pyrimidin-2-yl)isoindolin-2-yl)-2-(tetrahydrofuran-3-yl)ethan-1-one]",0.123 µM,> 10 µM
